Measured values as given in publication PMC8843160 (Drug Delivery, 2022).
Converted amounts (≈) assume the structure as drawn. Like-named read-outs stand apart in the source and are kept apart here.

What was measured:
[1] = Equilibrium solubility experiments; assay type: physicochemical
Method: The obtained complexes were vibrated by ultrasonic for 10 min then continuously shaken in a water bath at 32 °C until equilibrium.
(§1) The samples were determined by an LC-20A HPLC system (SHIMADZU, Kyoto, Japan). The separation was achieved on an InertSustain C18 column (4.6 mm × 250 mm, 5 µm, SHIMADZU, Kyoto, Japan) with the flow rate keeping at 1.0 mL/min, the column temperature maintaining at 40 °C and mobile phase consisting of methanol:water (25:75, v/v) with 0.4% phosphoric acid in water. Injection volume for each run was 50 μL, and detection wavelength was 254 nm.

[2] = In vitro skin permeation, Franz diffusion cells; assay type: in vitro ADME, porcine; conditions: donor saturated solution in isopropyl myristate; for Q24h, the cumulative amount of drug permeated per unit area at 24 h / Tlag / Jss, the steady-state flux: porcine ear skin, receptor PBS pH 7.4, 32 °C; for Tlag: linear portion of permeation curve extrapolated to the abscissa; for Jss, the steady-state flux: slope of the linear portion of the plots
Excerpt: According to the description in our previous report (Xu et al., [2011]), the porcine ears immediately obtained from the killed pig were supplied by local slaughterhouse (Xiangtan, China). The hair of porcine ears was carefully cut off with animal hair clippers. Then, skin grafting knife (Medical Equipment Factory of Shanghai Medical Instruments Co., Ltd., Shanghai, China) was employed to separate the skin and subcutaneous fat, and the skin of thickness in range of 0.6 ± 0.1 mm was obtained. The skin was kept frozen at −20 °C no more than 2 weeks.
Two-chamber Franz diffusion cells (receiver volume of 6.5 mL, effective diffusion area of 2.8 cm^2) were used for the in vitro transdermal experiments. The prepared skin was placed between the cell halves with the SC facing the donor cell. The receptor compartment was filled with phosphate buffered saline (pH 7.4), which was put in a water bath at 32 ± 0.5 °C and stirred with a magnetic bar at 300 rpm. The saturated solution of DCN and its ion-pair compounds in isopropyl myristate was filled in the donor cell, and a glass sheet was employed to cover the supply chamber during the in vitro permeation experiments. Since the experiment started, 1.0 mL sample was withdrawn from the receptor compartment at predetermined time interval 2, 4, 6, 8, 10, 12, 14, and 24 h. Subsequently, the equal volume of fresh PBS was replenished. These investigations were performed with different individual skin at least in triplicate.
as §1

[3] = Apparent distribution coefficient (Log P), shake-flask method; assay type: physicochemical; conditions: n-octanol/distilled water, 48 h, 32 °C
Method: as §1

[4] = aqueous buffer, thermodynamic from solid, PBS pH 7.4, 32 °C, read-out: Equilibrium solubility PBS (pH 7.4)
[5] = thermodynamic from solid, isopropyl myristate, 32 °C, read-out: Equilibrium solubility IPM
[6] = thermodynamic from solid, water, 32 °C, read-out: Equilibrium solubility Water

Row | Compound | Q24h, the cumulative amount of drug permeated per unit area at 24 h [2] | Tlag [2] | Jss, the steady-state flux [2] | also measured
1 | CC(=O)Oc1cccc2c1C(=O)c1c(OC(C)=O)cc(C(=O)O)cc1C2=O [DCN, Diacerein, reference compound] | 1.83 ± 0.22 µg/cm^2 | 2.68 ± 0.78 h | 0.06 ± 0.01 µg/cm^2⋅h^–1 | solubility thermodynamic at 48 h [1, 4]: 1442 ± 5.58 µg/mL (≈ 3910 µM); solubility thermodynamic at 48 h [1, 5]: 83.6 ± 18.1 µg/mL (≈ 227 µM); solubility thermodynamic at 48 h [1, 6]: 8.29 ± 0.27 µg/mL (≈ 22.5 µM); solubility thermodynamic at 48 h ([1]; water, 32 °C, read-out: Equilibrium solubility Water): ≤ 10 µg/mL
2 | CC(=O)Oc1cccc2c1C(=O)c1c(OC(C)=O)cc(C(=O)O)cc1C2=O.CCNCC [DCN-Dea] | 2.82 ± 0.49 µg/cm^2 | 4.12 ± 1.14 h | 0.10 ± 0.01 µg/cm^2⋅h^–1 | –
3 | CC(=O)Oc1cccc2c1C(=O)c1c(OC(C)=O)cc(C(=O)O)cc1C2=O.OCCNCCO [DCN-Deta] | 4.03 ± 0.71 µg/cm^2 | 2.16 ± 0.55 h | 0.11 ± 0.02 µg/cm^2⋅h^–1 | –
4 | CC(=O)Oc1cccc2c1C(=O)c1c(OC(C)=O)cc(C(=O)O)cc1C2=O.CCCCCCN [DCN-N6] | 3.86 ± 0.21 µg/cm^2 | 1.52 ± 0.36 h | 0.10 ± 0.02 µg/cm^2⋅h^–1 | –
5 | CC(=O)Oc1cccc2c1C(=O)c1c(OC(C)=O)cc(C(=O)O)cc1C2=O.CCCCCCCCN [DCN-N8] | 4.30 ± 0.63 µg/cm^2 | 2.15 ± 0.22 h | 0.14 ± 0.03 µg/cm^2⋅h^–1 | –
6 | CC(=O)Oc1cccc2c1C(=O)c1c(OC(C)=O)cc(C(=O)O)cc1C2=O.CCCCCCCCCCN [DCN-N10] | 6.41 ± 0.23 µg/cm^2 | 1.38 ± 0.14 h | 0.20 ± 0.03 µg/cm^2⋅h^–1 | –
7 | CC(=O)Oc1cccc2c1C(=O)c1c(OC(C)=O)cc(C(=O)O)cc1C2=O.CCCCCCCCCCCCN [DCN-N12] | – | 2.50 ± 0.18 h | 0.34 ± 0.02 µg/cm^2⋅h^–1 | –
8 | CC(=O)Oc1cccc2c1C(=O)c1c(OC(C)=O)cc(C(=O)O)cc1C2=O.CCCCCCCCCCCCCCN [DCN-N14] | 7.03 ± 1.56 µg/cm^2 | 1.31 ± 0.11 h | 0.24 ± 0.05 µg/cm^2⋅h^–1 | –
9 | CC(=O)Oc1cccc2c1C(=O)c1c(OC(C)=O)cc(C(=O)O)cc1C2=O.CCCCCCCCCCCCCCCCN [DCN-N16] | 6.44 ± 0.36 µg/cm^2 | 1.28 ± 0.23 h | 0.22 ± 0.01 µg/cm^2⋅h^–1 | –
10 | CC(=O)Oc1cccc2c1C(=O)c1c(OC(C)=O)cc(C(=O)O)cc1C2=O.CCCCCCCCCCCCCCCCCCN [DCN-N18] | 5.97 ± 1.25 µg/cm^2 | 1.42 ± 0.52 h | 0.20 ± 0.01 µg/cm^2⋅h^–1 | –
11 | CC(=O)Oc1cccc2c1C(=O)c1c(OC(C)=O)cc(C(=O)O)cc1C2=O.CCN(CC)CC [DCN-Tea] | 2.85 ± 0.64 µg/cm^2 | 3.39 ± 0.55 h | 0.11 ± 0.04 µg/cm^2⋅h^–1 | solubility thermodynamic at 48 h [1, 4]: 8188 ± 44.4 µg/mL; solubility thermodynamic at 48 h [1, 5]: 1385 ± 13.7 µg/mL; solubility thermodynamic at 48 h [1, 6]: 3233 ± 12.6 µg/mL
12 | CC(=O)Oc1cccc2c1C(=O)c1c(OC(C)=O)cc(C(=O)O)cc1C2=O.OCCN(CCO)CCO [DCN-Teta] | 7.89 ± 0.38 µg/cm^2 | 1.52 ± 0.48 h | 0.17 ± 0.05 µg/cm^2⋅h^–1 | transdermal permeation rate (comparison in words) ([2]; porcine ear skin in vitro): highest transdermal permeation rate
13 | CC(=O)Oc1cccc2c1C(=O)c1c(OC(C)=O)cc(C(=O)O)cc1C2=O.CCN [DCN-ea] | 2.17 ± 0.30 µg/cm^2 | 1.79 ± 0.66 h | 0.08 ± 0.02 µg/cm^2⋅h^–1 | Equilibrium solubility PBS (pH 7.4) ([1]; PBS pH 7.4, 32 °C, 48 h): 12155.69 ± 81.21 μg/mL; Equilibrium solubility IPM ([1]; isopropyl myristate, 32 °C, 48 h): 92.80 ± 14.10 µg/mL; Equilibrium solubility Water ([1]; water, 32 °C, 48 h): 6928.52 ± 4.80 µg/mL; Log P [3]: –0.39 ± 0.007
14 | CC(=O)Oc1cccc2c1C(=O)c1c(OC(C)=O)cc(C(=O)O)cc1C2=O.NCCO [DCN-eta] | 3.04 ± 0.67 µg/cm^2 | 1.41 ± 0.56 h | 0.09 ± 0.04 µg/cm^2⋅h^–1 | solubility thermodynamic at 48 h [1, 4]: 6100 ± 24.7 µg/mL; solubility thermodynamic at 48 h [1, 5]: 121.6 ± 1.2 µg/mL; solubility thermodynamic at 48 h [1, 6]: 3060 ± 35.8 µg/mL
